These results are taken from ChEMBL document CHEMBL1131152, “In vitro and in vivo activities of oligodeoxynucleotide-based thrombin inhibitors containing neutral formacetal linkages” (J Med Chem, 1998).

Each structure is given as a SMILES string.

The assay concerns the target Prothrombin (Homo sapiens) (UniProt P00734). The assay can be described thus: Relative prothrombin time was determined as the activity of the test ODN (oligodeoxynucleotide) relative to that of GS-522.

On to `Cc1cn([C@H]2C[C@H](OCOC[C@H]3O[C@@H](n4cnc5c(=O)nc(N)[nH]c54)C[C@@H]3OP(=O)(O)OC[C@H]3O[C@@H](n4cnc5c(=O)[nH]c(=N)[nH]c54)C[C@@H]3OP(=O)(O)OC[C@H]3O[C@@H](n4cc(C)c(=O)[nH]c4=O)C[C@@H]3OP(=O)(O)OC[C@H]3O[C@@H](n4cnc5c(=O)[nH]c(=N)[nH]c54)C[C@@H]3OP(=O)(O)OC[C@H]3O[C@@H](n4cc(C)c(=O)[nH]c4=O)C[C@@H]3OCOC[C@H]3O[C@@H](n4cnc5c(=O)nc(N)[nH]c54)C[C@@H]3OP(=O)(O)OC[C@H]3O[C@@H](n4cnc5c(=O)[nH]c(=N)[nH]c54)C[C@@H]3OP(=O)(O)OC[C@H]3O[C@@H](n4cc(C)c(=O)[nH]c4=O)C[C@@H]3OP(=O)(O)OC[C@H]3O[C@@H](n4cc(C)c(=O)[nH]c4=O)C[C@@H]3OP(=O)(O)OC[C@H]3O[C@@H](n4cnc5c(=O)[nH]c(=N)[nH]c54)C[C@@H]3OP(=O)(O)OC[C@H]3O[C@@H](n4cnc5c(=O)nc(N)[nH]c54)C[C@@H]3O)[C@@H](COP(=O)(O)O[C@H]3C[C@H](n4cc(C)c(=O)[nH]c4=O)O[C@@H]3COP(=O)(O)O[C@H]3C[C@H](n4cnc5c(=O)[nH]c(=N)[nH]c54)O[C@@H]3COP(=O)(O)O[C@H]3C[C@H](n4cnc5c(=O)[nH]c(=N)[nH]c54)O[C@@H]3COP(=O)(O)O)O2)c(=O)[nH]c1=O`, for which the Relative PT came to 0.7. Consider `Cc1cn([C@H]2C[C@H](OP(=O)(O)OC[C@H]3O[C@@H](n4cnc5c(=O)nc(N)[nH]c54)C[C@@H]3OP(=O)(O)OC[C@H]3O[C@@H](n4cnc5c(=O)[nH]c(=N)[nH]c54)C[C@@H]3OP(=O)(O)OC[C@H]3O[C@@H](n4cc(C)c(=O)[nH]c4=O)C[C@@H]3OP(=O)(O)OC[C@H]3O[C@@H](n4cnc5c(=O)[nH]c(=N)[nH]c54)C[C@@H]3OP(=O)(O)OC[C@H]3O[C@@H](n4cc(C)c(=O)[nH]c4=O)C[C@@H]3OP(=O)(O)OC[C@H]3O[C@@H](n4cnc5c(=O)nc(N)[nH]c54)C[C@@H]3OP(=O)(O)OC[C@H]3O[C@@H](n4cnc5c(=O)[nH]c(=N)[nH]c54)C[C@@H]3OP(=O)(O)OC[C@H]3O[C@@H](n4cc(C)c(=O)[nH]c4=O)C[C@@H]3OP(=O)(O)OC[C@H]3O[C@@H](n4cc(C)c(=O)[nH]c4=O)C[C@@H]3OP(=O)(O)OC[C@H]3O[C@@H](n4cnc5c(=O)[nH]c(=N)[nH]c54)C[C@@H]3OCOC[C@H]3O[C@@H](n4cnc5c(=O)nc(N)[nH]c54)C[C@@H]3O)[C@@H](COP(=O)(O)O[C@H]3C[C@H](n4cc(C)c(=O)[nH]c4=O)O[C@@H]3COP(=O)(O)O[C@H]3C[C@H](n4cnc5c(=O)nc(N)[nH]c54)O[C@@H]3COCO[C@H]3C[C@H](n4cnc5c(=O)[nH]c(=N)[nH]c54)O[C@@H]3COP(=O)(O)O)O2)c(=O)[nH]c1=O`, for which the Relative PT is 0.7. The figure for `Cc1cn([C@H]2C[C@H](OP(=O)(O)OC[C@H]3O[C@@H](n4cnc5c(=O)[nH]c(=N)[nH]c54)C[C@@H]3OP(=O)(O)OC[C@H]3O[C@@H](n4cc(C)c(=O)[nH]c4=O)C[C@@H]3OP(=O)(O)OC[C@H]3O[C@@H](n4cnc5c(=O)nc(N)[nH]c54)C[C@@H]3OP(=O)(O)OC[C@H]3O[C@@H](n4cnc5c(=O)[nH]c(=N)[nH]c54)C[C@@H]3OP(=O)(O)OC[C@H]3O[C@@H](n4cc(C)c(=O)[nH]c4=O)C[C@@H]3OP(=O)(O)OC[C@H]3O[C@@H](n4cc(C)c(=O)[nH]c4=O)C[C@@H]3OP(=O)(O)OC[C@H]3O[C@@H](n4cnc5c(=O)[nH]c(=N)[nH]c54)C[C@@H]3OP(=O)(O)OC[C@H]3O[C@@H](n4cnc5c(=O)nc(N)[nH]c54)C[C@@H]3O)[C@@H](COCO[C@H]3C[C@H](n4cnc5c(=O)[nH]c(=N)[nH]c54)O[C@@H]3COP(=O)(O)O[C@H]3C[C@H](n4cnc5c(=O)nc(N)[nH]c54)O[C@@H]3COP(=O)(O)O[C@H]3C[C@H](n4cc(C)c(=O)[nH]c4=O)O[C@@H]3COP(=O)(O)O[C@H]3C[C@H](n4cc(C)c(=O)[nH]c4=O)O[C@@H]3COP(=O)(O)O[C@H]3C[C@H](n4cnc5c(=O)nc(N)[nH]c54)O[C@@H]3COP(=O)(O)O[C@H]3C[C@H](n4cnc5c(=O)nc(N)[nH]c54)O[C@@H]3COP(=O)(O)O)O2)c(=O)[nH]c1=O` is 0.8. In the case of `Cc1cn([C@H]2C[C@H](OCOC[C@H]3O[C@@H](n4cc(C)c(=O)[nH]c4=O)C[C@@H]3OP(=O)(O)OC[C@H]3O[C@@H](n4cnc5c(=O)nc(N)[nH]c54)C[C@@H]3OP(=O)(O)OC[C@H]3O[C@@H](n4cnc5c(=O)[nH]c(=N)[nH]c54)C[C@@H]3OP(=O)(O)OC[C@H]3O[C@@H](n4cc(C)c(=O)[nH]c4=O)C[C@@H]3OP(=O)(O)OC[C@H]3O[C@@H](n4cnc5c(=O)[nH]c(=N)[nH]c54)C[C@@H]3OP(=O)(O)OC[C@H]3O[C@@H](n4cc(C)c(=O)[nH]c4=O)C[C@@H]3OP(=O)(O)OC[C@H]3O[C@@H](n4cnc5c(=O)nc(N)[nH]c54)C[C@@H]3OP(=O)(O)OC[C@H]3O[C@@H](n4cnc5c(=O)[nH]c(=N)[nH]c54)C[C@@H]3OP(=O)(O)OC[C@H]3O[C@@H](n4cc(C)c(=O)[nH]c4=O)C[C@@H]3OCOC[C@H]3O[C@@H](n4cc(C)c(=O)[nH]c4=O)C[C@@H]3OP(=O)(O)OC[C@H]3O[C@@H](n4cnc5c(=O)[nH]c(=N)[nH]c54)C[C@@H]3OP(=O)(O)OC[C@H]3O[C@@H](n4cnc5c(=O)nc(N)[nH]c54)C[C@@H]3O)[C@@H](COP(=O)(O)O[C@H]3C[C@H](n4cnc5c(=O)[nH]c(=N)[nH]c54)O[C@@H]3COP(=O)(O)O[C@H]3C[C@H](n4cnc5c(=O)nc(N)[nH]c54)O[C@@H]3COP(=O)(O)O)O2)c(=O)[nH]c1=O`, the Relative PT stood at 1.1.

In the case of `Cc1cn([C@H]2C[C@H](OCOC[C@H]3O[C@@H](n4cnc5c(=O)[nH]c(=N)[nH]c54)C[C@@H]3OP(=O)(O)OC[C@H]3O[C@@H](n4cnc5c(=O)nc(N)[nH]c54)C[C@@H]3O)[C@@H](COP(=O)(O)O[C@H]3C[C@H](n4cc(C)c(=O)[nH]c4=O)O[C@@H]3COP(=O)(O)O[C@H]3C[C@H](n4cnc5c(=O)[nH]c(=N)[nH]c54)O[C@@H]3COP(=O)(O)O[C@H]3C[C@H](n4cnc5c(=O)nc(N)[nH]c54)O[C@@H]3COP(=O)(O)O[C@H]3C[C@H](n4cc(C)c(=O)[nH]c4=O)O[C@@H]3COP(=O)(O)O[C@H]3C[C@H](n4cnc5c(=O)nc(N)[nH]c54)O[C@@H]3COP(=O)(O)O[C@H]3C[C@H](n4cc(C)c(=O)[nH]c4=O)O[C@@H]3COP(=O)(O)O[C@H]3C[C@H](n4cnc5c(=O)[nH]c(=N)[nH]c54)O[C@@H]3COP(=O)(O)O[C@H]3C[C@H](n4cnc5c(=O)nc(N)[nH]c54)O[C@@H]3COP(=O)(O)O[C@H]3C[C@H](n4cc(C)c(=O)[nH]c4=O)O[C@@H]3COCO[C@H]3C[C@H](n4cc(C)c(=O)[nH]c4=O)O[C@@H]3COP(=O)(O)O[C@H]3C[C@H](n4cnc5c(=O)nc(N)[nH]c54)O[C@@H]3COP(=O)(O)O[C@H]3C[C@H](n4cnc5c(=O)nc(N)[nH]c54)O[C@@H]3COP(=O)(O)O)O2)c(=O)[nH]c1=O`, the Relative PT came out at 0.6.
